How the values were obtained:
hEP4/Gqs5 = target: T1, hEP4/Gqs5 (Homo sapiens, UniProt P35408); assay: FLIPR calcium signal, HEK-293(EBNA) cells expressing hEP4/Gqs5; assay type: cell-based
T1 construct: expressed in transfected cells; host or cells: HEK-293(EBNA)
Description: HEK-293(EBNA) cells, stably expressing one type or subtype of recombinant human prostaglandin receptors (prostaglandin receptors expressed: hDP/Gqs5; hEP1; hEP2/Gqs5; hEP3A/Gqi5; hEP4/Gqs5; hFP; hIP; hTP), were cultured in 100 mm culture dishes in high-glucose DMEM medium containing 10% fetal bovine serum, 2 mM l-glutamine, 250 µg/ml geneticin (G418) and 200 μg/ml hygromycin B as selection markers, and 100 units/ml penicillin G, 100 µg/ml streptomycin and 0.25 μg/ml amphotericin B.
Cells were seeded at a density of 5×10^4 cells per well in Biocoat® Poly-D-lysine-coated black-wall, clear-bottom 96-well plates (Becton-Dickinson) and allowed to attach overnight in an incubator at 37° C. Cells were then washed two times with HBSS-HEPES buffer (Hanks Balanced Salt Solution without bicarbonate and phenol red, 20 mM HEPES, pH 7.4) using a Denley Cellwash plate washer (Labsystems). After 45 minutes of dye-loading in the dark, using the calcium-sensitive dye Fluo-4 […] at a final concentration of 2 μM, plates were washed four times with HBSS-HEPES buffer to remove excess dye leaving 100 μl in each well. Plates were re-equilibrated to 37° C. for a few minutes.
Cells were excited with an Argon laser at 488 nm, and emission was measured through a 510-570 nm bandwidth emission filter (FLIPR™, Molecular Devices, Sunnyvale, Calif.). Drug solution was added in a 50 µl volume to each well to give the desired final concentration. The peak increase in fluorescence intensity was recorded for each well. On each plate, four wells each served as negative (HBSS-HEPES buffer) and positive controls (standard agonists: BW245C (hDP); PGE2 (hEP1; hEP2/Gqs5; hEP3A/Gqi5; hEP4/Gqs5); PGF2α (hFP); carbacyclin (hIP); U-46619 (hTP), depending on receptor). The peak fluorescence change in each drug-containing well was then expressed relative to the controls.
Compounds were tested in a high-throughput (HTS) or concentration-response (CoRe) format. In the HTS format, forty-four compounds per plate were examined in duplicates at a concentration of 10^−5 M. To generate concentration-response curves, four compounds per plate were tested in duplicates in a concentration range between 10^−5 and 10^−11 M. The duplicate values were averaged. In either, HTS or CoRe format each compound was tested on at least 3 separate plates using cells from different passages to give an n≧3.

EP4 receptors = target: T2, EP4 receptors (Homo sapiens, UniProt P35408); assay: Radioligand binding, [3H]PGE2, HEK-293 cells stably expressing EP4 receptors; details: [3H]PGE2 competition
T2 construct: expressed in transfected cells; host or cells: HEK-293
T2 sequence (P35408 whole entry): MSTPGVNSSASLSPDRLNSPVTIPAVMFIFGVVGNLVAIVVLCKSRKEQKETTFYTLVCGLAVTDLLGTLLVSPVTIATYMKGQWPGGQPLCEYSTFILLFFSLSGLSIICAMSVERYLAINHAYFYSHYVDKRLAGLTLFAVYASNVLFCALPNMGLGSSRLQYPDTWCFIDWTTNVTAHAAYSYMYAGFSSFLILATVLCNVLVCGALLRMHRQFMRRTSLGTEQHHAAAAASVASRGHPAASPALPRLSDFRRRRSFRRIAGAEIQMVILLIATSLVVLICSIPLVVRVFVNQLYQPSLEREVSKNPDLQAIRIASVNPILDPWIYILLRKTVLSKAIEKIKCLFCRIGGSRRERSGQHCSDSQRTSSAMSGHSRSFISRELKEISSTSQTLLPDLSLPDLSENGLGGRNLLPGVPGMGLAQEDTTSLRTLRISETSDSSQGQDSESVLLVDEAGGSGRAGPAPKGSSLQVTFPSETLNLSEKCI
Description: (§1) HEK-293 cells stably expressing the human or feline FP receptor, or EP1, EP2, or EP4 receptors were washed with TME buffer, scraped from the bottom of the flasks, and homogenized for 30 sec using a Brinkman PT 10/35 polytron. TME buffer was added to achieve a final 40 ml volume in the centrifuge tubes (the composition of TME is 100 mM TRIS base, 20 mM MgCl2, […]; 10N HCl is added to achieve a pH of 7.4).
(§2) The cell homogenate was centrifuged at 19000 r.p.m. for 20 min at 4° C. using a Beckman Ti-60 rotor. The resultant pellet was resuspended in TME buffer to give a final 1 mg/ml protein concentration, as determined by Biorad assay. Radioligand binding competition assays vs. [^3H-]17-phenyl PGF2α (5 nM) were performed in a 100 μl volume for 60 min. Binding reactions were started by adding plasma membrane fraction. The reaction was terminated by the addition of 4 ml ice-cold TRIS-HCl buffer and rapid filtration through glass fiber GF/B filters using a Brandel cell harvester. The filters were washed 3 times with ice-cold buffer and oven dried for one hour.
(§3) [^3H-]PGE2 (specific activity 180 Ci mmol) was used as the radioligand for EP receptors. [^3H]17-phenyl PGF2α was employed for FP receptor binding studies. Binding studies employing EP1, EP2, EP4 and FP receptors were performed in duplicate in at least three separate experiments. A 200 μl assay volume was used. Incubations were for 60 min at 25° C. and were terminated by the addition of 4 ml of ice-cold 50 mM TRIS-HCl, followed by rapid filtration through Whatman GF/B filters and three additional 4 ml washes in a cell harvester (Brandel). Competition studies were performed using a final concentration of 5 nM [^3H]-PGE2, or 5 nM [^3H] 17-phenyl PGF2α and non-specific binding determined with 10^−5M of unlabeled PGE2, or 17-phenyl PGF2α, according to receptor subtype studied.

EP2 = EP2 (Homo sapiens, UniProt P43116); assay: Competition binding, [3H]PGE2, HEK 293 cells stably expressing human EP2 receptors; design: expressed in transfected cells; host or cells: HEK 293; details: [3H]PGE2 competition
EP2, sequence (P43116 whole entry): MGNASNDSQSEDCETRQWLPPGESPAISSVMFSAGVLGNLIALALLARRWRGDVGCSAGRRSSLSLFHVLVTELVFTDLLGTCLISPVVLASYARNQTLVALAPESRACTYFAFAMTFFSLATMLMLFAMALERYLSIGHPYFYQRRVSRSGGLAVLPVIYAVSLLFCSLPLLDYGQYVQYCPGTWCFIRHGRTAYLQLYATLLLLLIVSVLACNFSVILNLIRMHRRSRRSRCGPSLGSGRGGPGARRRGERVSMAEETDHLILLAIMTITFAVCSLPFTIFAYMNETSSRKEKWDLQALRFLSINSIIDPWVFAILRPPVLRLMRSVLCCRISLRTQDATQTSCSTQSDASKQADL
Description: Competition binding experiments were performed in a medium containing Hank's balanced salt solution, Hepes 20 mM, pH 7.3, membranes (˜60 μg protein) or 2×10^5 cells from HEK 293 cells stably expressing human EP2 receptors, [^3H]PGE2 (10 nM) and various concentrations of test compounds in a total volume of 300 μl. Reaction mixtures were incubated at 23° C. for 60 min, and were filtered over Whatman GF/B filters under vacuum. Filters were washed three times with 5 ml ice-cold buffer containing 50 mM Tris/HCl (pH 7.3). Non-specific binding was estimated in the presence of excess unlabeled PGE2 (10 μM). Binding data fitted to the binding model for a single class of binding sites, using nonlinear regression analysis. IC50 values thus obtained were converted to Ki using the equation of Ki=(IC50/(1+[L]/KD) where [L] represents PGE2 concentration (10 nM) and KD the dissociation constant for [3H]PGE2 at human EP2 receptors (40 nM).
as §1, §2, §3

[1] = Intraocular pressure in monkey; assay type: in vivo; details: Conc. 0.1% (g/100 mL)
[2] = Intraocular pressure in dog; assay type: in vivo; details: Conc. 0.1% (g/100 mL)
Text: U.S. patent application Ser. No. 11/553,143, filed on Oct. 26, 2006, incorporated by reference herein, describes the methods used to obtain the in vitro data in the table below.

Ocular hyperemia in dog = assay type: in vivo; details: Conc. 0.1% (g/100 mL)

T1 sequence (P35408 whole entry): as the sequence (P35408 whole entry) above

SMILES | Ca2+ Signal-EC50(nM) EP4 (hEP4/Gqs5) | Ki (EP4 receptors) [nM] | Ki (EP2) [nM] | MONKEY Max. ΔIOP (%) [1] [%] | DOG Max. ΔIOP (%) [2] [%] | DOG Max. hyperemia (Ocular hyperemia in dog)
CCCCCC(O)c1ccc([C@H]2C(=O)C=C[C@@H]2C/C=C\CCCC(=O)O)cc1 (some centres unmarked) [compound 4] | notactive | 4330 | > 10000 |  |  | 
CCCCCC(O)c1ccc([C@@H]2[C@@H](CCCc3ccc(C(=O)OC(C)C)s3)CCC2(Cl)Cl)cc1 (some centres unmarked) [compound 2] |  |  |  | −21 | −6 | 0.4
CCCCCC(O)c1ccc([C@H]2C(=O)CC[C@@H]2CCCc2ccc(C(=O)OC(C)C)s2)cc1 (some centres unmarked) [compound 1] |  |  |  |  | −37 | 1.6

Source: US7439372B2, “Therapeutic compounds” (Allergan, Inc., priority 2006, dated 2008)
